Experiment [1] relates to Staphylococcus aureus (ATCC® 29213™). Nature of the experiment: Minimum inhibitory concentration, growth of S. aureus. Type of experiment: cell-based. As to conditions: for MIC Staphylococcus aureus (ATCC ® 29213 ™): 90% inhibition of growth, aerobic, 24 hours, Table 6; for MIC Staphylococcus aureus (ATCC ® 29213): Table 14. The procedure:
(§1) The inhibition of growth of Cutibacterium acnes and Staphylococcus aureus bacteria was measured according to the methods described in Nakatsuji et al., J Invest Dermatol, 2009, 129: 2480-2488; Traub and Leonhard, Chemotherapy, 1994; 40(6):374-383. In summary, the strain ATCC® 6919™ of C. acnes (American Type Culture Collection, Manassas, VA) was cultured on Reinforced Clostridium agar (BD 218081), under anaerobic conditions using Gas-Pak (B D, Sparks, MD) at 37° C. ATCC® 29213™ strain of S. aureus was cultured on tryptic soy agar (BD 211825), under aerobic conditions at 37° C. A single colony was inoculated in broth medium and cultured at 37° C. In addition to various positive controls, both the Final Product and the First Stage Product of the extraction process described in Example 1 were tested as described below. Test material was dissolved in 100% (v/v) DMSO. Doxycycline was dissolved in 100% (v/v) water. Samples of each test material and a solution of doxycycline were then each incubated with an inoculum of bacteria at a concentration of 1×10^6 CFU per mL, in broth medium in a 96-well microplate (0.1 mL per well) under aerobic conditions for 24 hours (S. aureus) or anaerobic conditions for 72 hours (C. acnes). Samples of each material were tested at final concentrations per well up to 4 mg/mL. A control well received only 5% (v/v) of DMSO or water. After 24-72 hours incubation, the bacteria cultures in the 96-well microplate were mixed well and then absorbance readings at 600 nm were taken to determine bacterial growth.

Experiment [2] relates to Cutibacterium acnes (ATCC® 6919™). Nature of the experiment: Minimum inhibitory concentration, growth of C. acnes. Type of experiment: cell-based. Conditions: for MIC Cutibacterium acnes (ATCC ® 6919 ™): 90% inhibition of growth, anaerobic, 72 hours, Table 6; for MIC Cutibacterium acnes (ATCC ® 6919): Table 14. As to the method:
as §1

For experiment [3], the system named is human pre-adipocyte cells. Description: Lipolysis assay, glycerol release. The experiment is classed as cell-based. Conditions: 100 μM, 8 hours. From the text:
Lipolysis is the process in which triglycerides (TG) are hydrolyzed into glycerol and free fatty acids. This process releases free fatty acids (FFA) into the bloodstream where they may be either re-esterified by the adipocyte or travel to other tissues and exert other effects throughout the body. The purpose of this study was to evaluate the lipolysis via measure of the glycerol molecule released in lipolysis process. Here, we evaluated the potential capacity of the chia seed extract composition of Example 1 in cultured human pre-adipocyte cells. Cells were seeded in medium and incubated for 7 days. Neat solutions of the enriched free acid chia seed extract composition of Example 1 were prepared formulated in methanol. Cells were pre-treated for 8 hours with or without test material in media.
A Lipolysis Assay Kit (Cat. No. Lip-1) was obtained from Zen-Bio, Inc. (Research Triangle, NC) and used to determine glycerol levels (μM) based on the methodology described below. Glycerol released to the medium is phosphorylated by […] (ATP) forming glycerol-1-phosphate (G-1-P) and adenosine-5′-diphosphate (ADP) in the reaction catalyzed by glycerol kinase. G-1-P is then oxidized by glycerol phosphate oxidase to dihydroxyacetone phosphate (DAP) and hydrogen peroxide. […] The increase in absorbance at 540 nm is directly proportional to glycerol concentration of the sample. […]

Experiment [4] can be described thus: Clinical trial, skin moisturization by Corneometer. Type of experiment: in vivo, human. As to conditions: lower leg. The procedure: A single-blind, single-center clinical trial was conducted with 6 healthy volunteers of either sex to evaluate the moisturization efficacy of a moisturizing cream (formulated as shown below in Table 8) containing the composition prepared using the process of Example 9, vehicle (i.e., the formulation of Table 8 minus the active ingredient-i.e., the chia seed composition), a negative control (untreated), and two positive controls (petroleum jelly and glycerin). The objective of this study was to evaluate the moisturization efficacy (as measured by Corneometer®) and to evaluate the relative degree of improvement to skin barrier functionality of two test articles as measured by Trans Epidermal Water Loss (TEWL) assessments when tested in 16 healthy subjects. See, e.g., Johan du […] et al., International Guidelines for The In Vivo Assessment Of Skin Properties In Noel-Clinical Settings: Part 2. Transepidermal Water Loss and Skin Hydration, Skin Res. Technol. 19(3), 265-278 (2013); C. W. Blichmann and J. Serup, Assessment of Skin Moisture. Measurement of Electrical Conductance: Capacitance and Transepidermal Water Loss, Acta Derm. Venereol. 68(4): 284-290 (1988). On day -3 of the study, subjects were given a bland soap product (e.g., Simple® Soap) to use on their lower legs for the three days prior to the active phase. They were instructed not to use any other treatment products on their lower legs for the next 3 days (the “Washout Phase”). These products included moisturizing foam baths, shower gels or soaps, lotions and creams, and depilatory products. As part of the pre-treatment assessment, subjects sat resting for a period of at least 30 minutes in a controlled environment at a temperature of 22° C.±2° C. and at a relative humidity of 45%±5%. Following the rest period, their lower legs were marked with a total of four 5 cm×5 cm squares. Moisturization measurements to study the humectant properties of the test articles were performed using the Corneometer® CM825 (Courage and Khazaka, Germany). This instrument relies on the dielectric constant, a physical property of water, which is relatively high and as such will affect the capacitance of a capacitor. Any change in the dielectric constant due to skin moisture variations would alter the capacitance of the precision capacitor in the instrument. These variations were detected electronically and converted into a value by the Corneometer®. A 15-minute warm-up period was allowed before using the Corneometer®. Following assessments of skin hydration by a Corneometer®, a single application of the test articles (i.e., the chia seed formulation and vehicle alone) was made to the lower leg. Further Corneometer® assessments were then performed at 2, 8, and 24-hours following test article application. […]

The target in the next experiment is T1, PME-1 (Homo sapiens, UniProt Q9Y570).
T1 construct: made in house
T1 sequence (Q9Y570 1-386): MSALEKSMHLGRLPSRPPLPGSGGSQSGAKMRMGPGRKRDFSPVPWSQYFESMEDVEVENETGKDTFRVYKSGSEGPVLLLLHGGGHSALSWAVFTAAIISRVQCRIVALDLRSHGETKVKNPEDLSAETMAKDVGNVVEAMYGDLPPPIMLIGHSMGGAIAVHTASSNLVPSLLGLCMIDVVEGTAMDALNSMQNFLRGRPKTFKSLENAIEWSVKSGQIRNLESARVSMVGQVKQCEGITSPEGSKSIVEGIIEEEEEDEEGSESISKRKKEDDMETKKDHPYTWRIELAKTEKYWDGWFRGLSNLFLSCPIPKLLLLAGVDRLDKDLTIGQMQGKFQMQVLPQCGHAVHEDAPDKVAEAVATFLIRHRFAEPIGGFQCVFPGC
Nature of the experiment: PP2A demethylation by PME-1, radioactive filter binding assay. The experiment is classed as biochemical. As to the method:
Compositions were created using the extraction methods as generally described in Example 1. These compositions were assayed for their ability to preserve the methylation status of PP2A AC dimer in the presence of protein phosphatase methylesterase-1 (PME-1), using a radioactive filter binding assay.
PP2A-AC dimer was prepared as previously described in Tolstykh T, Lee J, Vafai S, Stock J B. Carboxyl methylation regulates phosphoprotein phosphatase 2A by controlling the association of regulatory B subunits. EMBO J. 2000; 19(20:5682-5691. Additional purification was performed with a HiPrep™ 16/60 Sephacryl® S100 HR in a buffer composed of 50 mM MOPS pH 7.2, 1.0 mM EDTA, 1.0 mM dithiothreitol (DTT), and 0.50 μg/ml each of aprotinin, leupeptin and pepstatin. Leucine carboxyl methytransferase-1 (LCMT-1) and Protein phosphatase methylesterase-1 (PME-1) were prepared using the methods as previously described Xing Y, Li Z, Chen Y, Stock J B, Jeffrey P D, Shi Y. Structural mechanism of demethylation and inactivation of protein phosphatase 2A. Cell. 2008; 133(I):154-163.
[3H]-labeled methylated PP2A AC dirtier was prepared by incubating PP2A, LCMT1 and [3H]-SAM (PerkinElmer; Waltham, Mass.) in 50 mM MOPS-Na (pH 7.2), 5 mM MgCl2, and 1 mM DTT at room temperature for 1 hour. Demethylation of PP2A by PME-1 was measured using the radioactive filter binding assay format. 20 nM PME-1 was incubated for 15 minutes with extract or compound, then 20 nM of [3H]-labeled methylated PP2A AC dimer was added. Reactions were run at room temperature for 30 minutes and then applied to a 96-well filter plate (Millipore Co.) containing 30% TCA where proteins were precipitated and separated from the excess of [3H]-SAM by washing with 70% ethanol. [3H]-incorporation was measured using TopCount NXT scintillation counter (PerkinEimer; Waltham, MA). IC50 values were generated from dose-response curves using a four-parameter logistic curve fit using SigmaPlot software (Systat Software, San Jose, CA).

Marks after values point to notes of the source that are not given here.

As for `O=C(OOC(=O)c1ccccc1)c1ccccc1` [Benzoyl peroxide], in experiment [1], the “MIC Staphylococcus aureus (ATCC ® 29213 ™)” value is on record as 500 μg\mL and the “MIC Staphylococcus aureus (ATCC ® 29213)” value came out at 500 μg\mL. For the same molecule, in experiment [2], the “MIC Cutibacterium acnes (ATCC ® 6919 ™)” value was found to be 500 μg\mL and the “MIC Cutibacterium acnes (ATCC ® 6919)” value was 500 μg\mL.
In the case of `CC(C)Cn1c(=O)n(C)c(=O)c2[nH]cnc21` [IBMX, 3-isobutyl-1-methylxanthine], in experiment [3], the “Glycerol Levels, Avg” value is reported as 8.8* (p < 0.01 μM and the “Glycerol Levels, Fold Improvement” value is 6.4.
In the case of `OCC(O)CO` [Positive Control (glycerine), glycerine], the “Mean Corneometer ® Values” in experiment [4] (0 hours (before application)) was determined as 22.7; in experiment [4] (2 hours after single application), 127.1; in experiment [4] (8 hours after single application), 106.8; in experiment [4] (24 hours after single application), 82.3.
In the case of `C[C@H]1c2cccc(O)c2C(=O)C2=C(O)[C@]3(O)C(=O)C(C(N)=O)=C(O)[C@@H](N(C)C)[C@@H]3[C@@H](O)[C@@H]21` [Doxycycline], in experiment [1], the “MIC Staphylococcus aureus (ATCC ® 29213 ™)” value is reported as 0.2 μg\mL and the “MIC Staphylococcus aureus (ATCC ® 29213)” value was determined as 0.2 μg\mL. For the same molecule, in experiment [2], the “MIC Cutibacterium acnes (ATCC ® 6919 ™)” value is reported as 0.6 μg\mL and the “MIC Cutibacterium acnes (ATCC ® 6919)” value amounted to 0.6 μg\mL.
Consider `O=C(O)c1ccccc1O` [Salicylic Acid], for which, in experiment [1], the “MIC Staphylococcus aureus (ATCC ® 29213 ™)” value amounted to 2000 μg\mL and the “MIC Staphylococcus aureus (ATCC ® 29213)” value was 2000 μg\mL. Moreover, in experiment [2], the “MIC Cutibacterium acnes (ATCC ® 6919 ™)” value turned out to be 1000 μg\mL and the “MIC Cutibacterium acnes (ATCC ® 6919)” value is listed as 500 μg\mL.
Regarding `CCCCC/C=C\C/C=C\CCCCCCCC(=O)O` [LA, cis,cis-9,12-octadecadienoic acid], the “[LA] at which 50% PP2A inhibition is achieved” value at PME-1 (regardless of [ALA]) is no less than 1 µg/mL.
For `CC/C=C\C/C=C\C/C=C\CCCCCCCC(=O)O` [ALA, cis,cis,cis-9,12,15-octacedatriencoic acid], the “[ALA] necessary to obtain 50% PP2A inhibition” value on PME-1 ([LA]=0 μg/mL) was greater than 8 µg/mL; on PME-1 ([LA]=0.5 μg/mL) it was greater than 4 µg/mL.

(Values after US12599642B2, “Compositions derived from Salvia hispanica seeds” (Signum Biosciences, priority 2020, dated 2026).)
